In patent publication US20050171358A1 (priority 2002, published 2005):

Assays:
[1] = system: Pyricularia oryzae; type: in vivo; conditions: 200 ppm spray on rice (Koshihikari, 3 leaf stage), inoculated next day; lesion numbers on third leaves after 7 days in green house, graded by Table 5
[2] = system: Colletotrichum lagenarium; conditions: 200 ppm spray on cucumber (3 leaf stage), inoculated next day; lesion numbers on first and second leaves after 7 days in green house, graded by Table 5

SMILES | Evaluation (effect for rice blast) [1] | Evaluation (effect for cucumber anthracnose) [2]
Cc1ccc(C(=O)NCc2cc(C(C)C)no2)cc1 [III-5, N-[(3-isopropyl-5-isoxazolyl)methyl]-4-methyl benzamide] | 4 (1˜5) | 4 (1˜5)
O=C(NCc1cc(C2CCCCC2)no1)c1ccccc1 [III-6, N-[(3-cyclohexyl-5-isoxazolyl)methyl]benzamide] | 5 (0) | 4 (1˜5)
Cc1ccc(-c2cc(CNC(=O)c3ccccc3)on2)cc1 [III-10, N-{[3-(4-tolyl)-5-isoxazolyl]methyl}benzamide] | 5 (0) | 5 (0)
Cc1ccc(C(=O)NCc2cc(-c3ccc(C)cc3)no2)cc1 [III-11, N-{[3-(4-tolyl)-5-isoxazolyl]methyl}-4-methylbenzamide] | 5 (0) | 3 (6˜10)
COc1ccc(C(=O)NCc2cc(-c3ccc(C)cc3)no2)cc1 [III-12, N-{[3-(4-tolyl)-5-isoxazolyl]methyl}-4-methoxybenzamide] | 5 (0) | 5 (0)
COc1ccc(C(=O)NCc2cc(-c3ccc(C(C)(C)C)cc3)no2)cc1 [III-14, N-{[3-(4-t-butylphenyl)-5-isoxazolyl]methyl}-4-methoxybenzamide] | 5 (0) | 3 (6˜10)
COc1ccc(-c2cc(CNC(=O)c3ccccc3)on2)cc1 [III-17, N-{[3-(4-methoxyphenyl)-5-isoxazolyl]methyl}benzamide] | 5 (0) | 5 (0)
COc1ccc(C(=O)NCc2cc(-c3ccc(OC)cc3)no2)cc1 [III-18, N-{[3-(4-methoxyphenyl)-5-isoxazolyl]methyl}-4-methoxy benzamide] | 5 (0) | 5 (0)
COc1ccc(-c2cc(CNC(=O)c3ccc(C)cc3)on2)cc1 [III-19, N-{[3-(4-methoxyphenyl)-5-isoxazolyl]methyl}-4-methylbenzamide] | 5 (0) | 5 (0)
Cc1ccc(C(=O)NCc2cc(-c3ccc(S(C)(=O)=O)cc3)no2)cc1 [III-26, N-{[3-(4-mesylphenyl)-5-isoxazolyl]methyl}-4-methylbenzamide] | 5 (0) | 5 (0)
Cc1ccc(C(=O)NCc2cc(-c3ccc([S+](C)[O-])cc3)no2)cc1 (stereo not drawn) [III-27, N-{[3-(4-methanesulfinylphenyl)-5-isoxazolyl]methyl}-4-methylbenzamide] | 5 (0) | 5 (0)
CSc1ccc(-c2cc(CNC(=O)c3ccc(C)cc3)on2)cc1 [III-28, N-{[3-(4-methylthiophenyl)-5-isoxazolyl]methyl}-4-methylbenzamide] | 5 (0) | 4 (1˜5)
Cc1ccc(C(=O)NCc2cc(-c3ccc(F)cc3)no2)cc1 [III-31, N-{[3-(4-fluorophenyl)-5-isoxazolyl]methyl}-4-methylbenzamide] | 5 (0) | 5 (0)
O=C(NCc1cc(-c2ccc(Cl)cc2)no1)c1ccccc1 [III-34, N-{[3-(4-chlorophenyl)-5-isoxazolyl]methyl}benzamide] | 5 (0) | 5 (0)
O=C(NCc1cc(-c2ccc(Br)cc2)no1)c1ccccc1 [III-37, N-{[3-(4-bromophenyl)-5-isoxazolyl]methyl}benzamide] | 5 (0) | 3 (6˜10)
O=C(NCc1cc(-c2ccc(C(F)(F)F)cc2)no1)c1ccccc1 [III-40, N-{[3-(4-trifluoromethylphenyl)-5-isoxazolyl]methyl}benzamide] | 5 (0) | 5 (0)
Cc1ccc(C(=O)NCc2cc(-c3ccc(C#N)cc3)no2)cc1 [III-43, N-{[3-(4-cyanophenyl)-5-isoxazolyl]methyl}-4-methylbenzamide] | 5 (0) | 4 (1˜5)
COc1ccc(C(=O)NCc2cc(-c3ccc(OC(F)(F)F)cc3)no2)cc1 [III-49, N-{[3-(4-trifluoromethoxyphenyl)-5-isoxazolyl]methyl}-4-methoxybenzamide] | 5 (0) | 5 (0)
Cc1ccc(C(=O)NCc2cc(-c3ccc(C(=O)O)cc3)no2)cc1 [III-51, N-{[3-(4-carboxyphenyl)-5-isoxazolyl]methyl}-4-methylbenzamide] | 5 (0) | 4 (1˜5)
COC(=O)c1ccc(-c2cc(CNC(=O)c3ccc(C)cc3)on2)cc1 [III-52, N-{[3-(4-methoxycarbonylphenyl)-5-isoxazolyl]methyl}-4-methylbenzamide] | 5 (0) | 5 (0)

SMILES | Evaluation (effect for rice blast) [1] | Evaluation (effect for cucumber anthracnose) [2]
Cc1ccc(C(=O)NCc2cc(-c3ccc(N(C)C)cc3)no2)cc1 [III-61, N-{[3-(4-dimethylaminophenyl)-5-isoxazolyl]methyl}-4-methylbenzamide] | 5 (0) | 4 (1˜5)
Cc1ccc(C(=O)NCc2cc(-c3ccc(C)cc3C)no2)cc1 [III-65, N-{[3-(2,4-dimethylphenyl)-5-isoxazolyl]methyl}-4-methylbenzamide] | 5 (0) | 5 (0)
COc1ccc(-c2cc(CNC(=O)c3ccc(C)cc3)on2)c(OC)c1 [III-66, N-{[3-(2,4-dimethoxyphenyl)-5-isoxazolyl]methyl}-4-methylbenzamide] | 5 (0) | 5 (0)
COc1ccc(-c2cc(CNC(=O)c3ccccc3)on2)cc1OC [III-67, N-{[3-(3,4-dimethoxyphenyl)-5-isoxazolyl]methyl}benzamide] | 5 (0) | 5 (0)
COc1ccc(-c2cc(CNC(=O)c3ccc(C)cc3)on2)cc1OC [III-68, N-{[3-(3,4-dimethoxyphenyl)-5-isoxazolyl]methyl}-4-methylbenzamide] | 5 (0) | 5 (0)
Cc1ccc(C(=O)NCc2cc(-c3ccc(C)c(F)c3)no2)cc1 [III-73, N-{[3-(3-fluoro-4-methylphenyl)-5-isoxazolyl]methyl}-4-methylbenzamide] | 5 (0) | 4 (1˜5)
COc1ccc(-c2cc(CNC(=O)c3ccc(C)cc3)on2)c(F)c1 [III-74, N-{[3-(2-fluoro-4-methoxyphenyl)-5-isoxazolyl]methyl}-4-methylbenzamide] | 5 (0) | 5 (0)
Cc1ccc(C(=O)NCc2cc(-c3ccccc3)no2)cc1 [III-107, N-[(3-phenyl-5-isoxazolyl)methyl]-4-methylbenzamide] | 5 (0) | 5 (0)
CC(C)(C)c1ccc(C(=O)NCc2cc(-c3ccccc3)no2)cc1 [III-108, N-[(3-phenyl-5-isoxazolyl)methyl]-4-t-butylbenzamide] | 2 (11˜20) | 3 (6˜10)
COc1ccccc1C(=O)NCc1cc(-c2ccccc2)no1 [III-109, N-[(3-phenyl-5-isoxazolyl)methyl]-2-methoxybenzamide] | 4 (1˜5) | 5 (0)
COc1ccc(C(=O)NCc2cc(-c3ccccc3)no2)cc1 [III-111, N-[(3-phenyl-5-isoxazolyl)methyl]-4-methoxy benzamide] | 5 (0) | 5 (0)
O=C(NCc1cc(-c2ccccc2)no1)c1ccc(F)cc1 [III-121, N-[(3-phenyl-5-isoxazolyl)methyl]-4-fluorobenzamide] | 5 (0) | 5 (0)
O=C(NCc1cc(-c2ccccc2)no1)c1ccccc1Cl [III-122, N-[(3-phenyl-5-isoxazolyl)methyl]-2-chlorobenzamide] | 4 (1˜5) | 4 (1˜5)
O=C(NCc1cc(-c2ccccc2)no1)c1cccc(Cl)c1 [III-123, N-[(3-phenyl-5-isoxazolyl)methyl]-3-chlorobenzamide] | 5 (0) | 5 (0)
O=C(NCc1cc(-c2ccccc2)no1)c1ccc(Cl)cc1 [III-124, N-[(3-phenyl-5-isoxazolyl)methyl]-4-chlorobenzamide] | 5 (0) | 4 (1˜5)
O=C(NCc1cc(-c2ccccc2)no1)c1ccc(C(F)(F)F)cc1 [III-130, N-[(3-phenyl-5-isoxazolyl)methyl]-4-trifluoromethylbenzamide] | 4 (1˜5) | 4 (1˜5)
N#Cc1ccc(C(=O)NCc2cc(-c3ccccc3)no2)cc1 [III-133, N-[(3-phenyl-5-isoxazolyl)methyl]-4-cyanobenzamide] | 4 (1˜5) | 4 (1˜5)
Cc1ccc(-c2cc(CNC(=O)c3ccccc3O)on2)cc1 [III-134, N-[(3-(4-tolyl)-5-isoxazolyl)methyl]-2-hydroxybenzamide] | 3 (6˜10) | 5 (0)
O=C(NCc1cc(-c2ccccc2)no1)c1ccc([N+](=O)[O-])cc1 [III-137, N-[(3-phenyl-5-isoxazolyl)methyl]-4-nitrobenzamide] | 4 (1˜5) | 5 (0)
